Test results reported in article PMC5059943, “Screening for peptides targeted to IL-7Rα for molecular imaging of rheumatoid arthritis synovium” (Arthritis Research & Therapy, 2016).
Where a SMILES comes first, the peptide text is derived from it. Bridges are numbered along the chain shown (N, C = ends). Where no end group is shown, it is not given here. The star is where a group is joined. Biotin = O=C1N[C@H]2[C@H](CS[C@H]2CCCCC(=O)*)N1; AEEA = NCCOCCOCC(=O)O

Key:
[1] = tested on: IL-7Rα expression of Jurkat cells; experiment: IL-7Rα expression of ADC vs. NS Jurkat cells; format: cell-based; conditions: 0.4 μM ADC, 4 days
Procedure: Jurkat cells were cultured in RPMI-1640 culture medium supplemented with 10 % newborn calf serum heat-inactivated and 1 % antibiotic-antimycotic (all from Invitrogen). The cells were stimulated with 0.4 μM of 5-Aza-2’-deoxycytidine (ADC, Sigma-Aldrich) [26]. The stimulated cells were immobilized on poly-L-lysine (Sigma-Aldrich) coated coverslips and fixed in a solution of 4 % formaldehyde (Sigma-Aldrich). […] Biotinylated peptides were detected with a goat anti-biotin antibody followed by fluorescein-conjugated rabbit anti-goat antibody (both from Vector Labconsult). Anti-IL-7Rα antibody was detected with Texas Red horse anti-mouse antibody (Vector Labconsult). […] The coverslips were mounted on slides with Vectashield mounting medium for fluorescence with 4',6-diamidino-2-phenylindole (DAPI) (Vector Labconsult) and observed on a DM2000 Leica microscope equipped with a DFC 425C camera (Leica Microsystems, Groot Bijgaarden, Belgium).
USPIO-P258 was co-localized with IL-7Rα expressed by Jurkat cells using an immunofluorescence protocol. […] The coverslips were finally mounted on slides with a mounting medium for fluorescence (Vector Labconsult). The RRFL was evaluated as described above.

[2] = target: T1, IL-7Rα (Homo sapiens, UniProt P16871); experiment: ELISA of biotinylated peptides, K*d for IL-7Rα; format: binding; conditions: synthesized peptides, IL-7Rα vs. FN
T1 construct: screened against the extracellular domain of IL-7Rα (E^21–D^239); Fc (chimera partner); purchased R&D Systems
T1 sequence (P16871 21-239): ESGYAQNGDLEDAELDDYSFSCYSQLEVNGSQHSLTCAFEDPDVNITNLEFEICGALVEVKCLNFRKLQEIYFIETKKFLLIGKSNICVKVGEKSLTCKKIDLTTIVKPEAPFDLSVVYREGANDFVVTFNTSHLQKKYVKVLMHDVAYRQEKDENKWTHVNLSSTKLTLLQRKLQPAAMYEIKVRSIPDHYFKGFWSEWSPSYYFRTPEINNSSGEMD
Procedure: (§1) Serial dilutions of biotinylated peptides were incubated with IL-7Rα or FN immobilized on ELISA plates as described above and blocked with protein-free blocking buffer (PFBB) (Perbioscience, Erembodegem, Belgium). Peptides bound to the target were detected with a goat anti-biotin antibody, followed by a peroxidase-conjugated anti-goat antibody made in horse (both from Vector Labconsult, Brussels, Belgium). […] The protocol is largely described in Additional file 1: Methods. […]
(§2) screening of the phage clones.
(§3) After 30 min of incubation, the […]
(§4) antibody as described above.
(§5) 2. Characterization of the selected IL-7Rα-binding peptides […]
(§6) by an incubation of 2h at 37°C. The wells were subsequently incubated (1h, room temperature) […]
(§7) 20 and 0.5% BSA (1h, room temperature). After each incubation step, the wells were washed with PBST-0.05% using a microplate washer. The staining reaction was developed with 0.1 […]
(§8) For this purpose, a range of IL-

[3] = tested on: IL-7Rα expressed by ADC-stimulated Jurkat cells; experiment: Binding of peptides to ADC-stimulated Jurkat cells and co-localization with IL-7Rα by immunofluorescence; format: cell-based, human
Procedure: The cells were stimulated with 0.4 μM of 5-Aza-2’-deoxycytidine (ADC, Sigma-Aldrich). The stimulated cells were immobilized on poly-L-lysine (Sigma-Aldrich) coated coverslips and fixed in a solution of 4 % formaldehyde (Sigma-Aldrich). […] Biotinylated peptides were detected with a goat anti-biotin antibody followed by fluorescein-conjugated rabbit anti-goat antibody (both from Vector Labconsult). Anti-IL-7Rα antibody was detected with Texas Red horse anti-mouse antibody (Vector Labconsult). Control samples consisted of ADC-stimulated or non-stimulated (NS) Jurkat cells incubated with low-affinity peptide binders (e.g., P255, P259), a mouse IgG isotype control, or with secondary antibodies after excluding the primary antibodies. […] The protocol is additionally described in Additional file 1: Methods.
to the target was detected as described above.
(Sigma-Aldrich) diluted in PBS.
(Vector Labconsult) diluted in phosphate buffer. They were then co-incubated (1h, room
camera (Leica Microsystems, Groot Bijgaarden, Belgium).

[4] = tested on: STAT5 activation in ADC-stimulated Jurkat cells; experiment: Phospho-STAT5 detection on ADC-stimulated Jurkat cells by immunofluorescence; format: cell-based, human
Procedure: The solutions were replaced every day after culture tube centrifugation and supernatant removal.
The signal intensity (SI) was measured on microphotographs corresponding to three to six different microscopic fields using the ImageJ software (National Institutes of Health, USA), and the relative ratio of fluorescent labeling (RRFL) was then calculated using the subsequent equation: RRFL=SIsample/Numberofcells/SInegativecontrols/Numberofcells×100 […]
stained with 0.05% 3,3'-diaminobenzidine (DAB) completed with 0.02% H2O2 in PBS. Finally, they were counterstained with Hemalun and Luxol fast blue and mounted in a permanent […]
To validate the binding of biotinylated P258 to human knee sections, the endogenous biotin was first blocked with a blocking kit (Invitrogen). The histologic sections were then incubated (4°C, overnight) with 1 µM of P258, followed by an incubation (1h, room […]
goat antibody made in horse (Vector Labconsult). The staining and counterstaining were performed as described above for anti-IL-7Rα monoclonal antibody.
2.5. Phospho-STAT5 detection on Jurkat cells and modulation by peptide P725 Jurkat cells were cultured and stimulated with ADC as described above. The experiment was performed in triplicate on stimulated and non -stimulated cells that were distributed in several culture tubes at a concentration of 10^6 cells/mL and treated (37°C in a humidified 5% CO2 incubator) with different compounds diluted in the culture medium as follows: (A) cells […]
for 30 min with 1 mM of P725; (C) cells pre-incubated for 30 min with 10 µg/mL of mo use […]
In the case of samples B and C, the […]
replaced every day after centrifuging the culture tubes and removing the precedent solutions by […]
At the end of the treatment period, the cells were immobilized on poly -L-lysine coated coverslips and fixed with 4% formaldehyde as described above. After three times rinsing with PBS, the cells were treated with 100% methanol for 10 min at -20°C. […] The primary antibodies bound to the cells were then detected by a co- […]

[5] = tested on: lysosome content of Jurkat cells; experiment: Lysosome content of Jurkat cells (Lysotracker Red DND-99); format: cell-based
[6] = target: T2, FN (Homo sapiens, UniProt P02751); experiment: ELISA of biotinylated peptides, K*d for FN; format: binding; conditions: Fig. 1a, 2 h at 37 °C, read-out: Kd: FN, synthesized peptides
T2 construct: fragment 3 of recombinant human FN-1 (R&D Systems); purchased R&D Systems
Procedure: as §1, §2, §3, §4, §5, §6, §7, §8

[7] = target: IL-7Rα (high-affinity receptor) (Homo sapiens) (UniProt P16871); conditions: cited from earlier work
[8] = target: high-affinity IL-7R; conditions: read-out: Kd of IL-7 against high-affinity IL-7R, reported previously; cited from earlier work
Source text: (§9) In addition, two antibodies were used to detect IL-7, which means that additional rinsing steps may contribute to extensive prot ...

[9] = target: low-affinity IL-7R; conditions: read-out: Kd of IL-7 against low-affinity IL-7R, reported previously; cited from earlier work
Source text: as §9

[10] = target: T3, IL-7Rα 21-239 (Homo sapiens, UniProt P16871); experiment: ELISA
T3 chain: T1 sequence (P16871 21-239)

[11] = target: T3, IL-7Rα 21-239; experiment: competition ELISA vs IL-7

T2 sequence (P02751 607-1265 limits assumed): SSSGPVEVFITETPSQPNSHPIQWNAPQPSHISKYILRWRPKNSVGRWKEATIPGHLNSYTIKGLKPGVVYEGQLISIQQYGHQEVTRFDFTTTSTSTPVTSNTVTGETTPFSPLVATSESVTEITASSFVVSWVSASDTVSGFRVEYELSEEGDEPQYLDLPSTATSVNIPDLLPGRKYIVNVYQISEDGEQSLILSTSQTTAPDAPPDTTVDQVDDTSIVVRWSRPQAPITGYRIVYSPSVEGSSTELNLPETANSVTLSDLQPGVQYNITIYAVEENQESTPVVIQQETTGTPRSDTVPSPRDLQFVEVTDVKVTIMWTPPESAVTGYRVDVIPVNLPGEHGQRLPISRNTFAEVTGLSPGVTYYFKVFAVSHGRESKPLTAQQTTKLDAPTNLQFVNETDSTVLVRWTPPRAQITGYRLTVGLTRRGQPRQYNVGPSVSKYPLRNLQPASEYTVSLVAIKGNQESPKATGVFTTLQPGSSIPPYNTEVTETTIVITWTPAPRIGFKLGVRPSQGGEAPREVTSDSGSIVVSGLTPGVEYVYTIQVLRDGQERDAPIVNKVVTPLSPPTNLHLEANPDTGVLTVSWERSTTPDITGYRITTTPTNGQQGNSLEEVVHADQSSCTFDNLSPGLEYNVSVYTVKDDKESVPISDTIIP

Nc1ncn([C@H]2C[C@H](O)[C@@H](CO)O2)c(=O)n1 [ADC, 5-Aza-2’-deoxycytidine]
IL-7Rα expression in ADC cells vs. NS cells (fold) [1]: about six

C[C@@H]1NC(=O)[C@@H]2CCCN2C(=O)[C@H](CCCNC(=N)N)NC(=O)[C@H](CCC(N)=O)NC(=O)[C@@H]2CCCN2C(=O)[C@H](Cc2c[nH]cn2)NC(=O)[C@@H]2CCCN2C(=O)[C@@H](NC(=O)COCCOCCNC(=O)CCCC[C@@H]2SC[C@@H]3NC(=O)N[C@@H]32)CSSC[C@@H](C(N)=O)NC1=O [Peptide P722] ({Biotin-AEEA}-CPHPQRPAC-NH2; disulfide 1-9; C-terminus assumed)
Relative affinity for IL-7Rα and FN, peptides [2]: lost its affinity against IL-7Rα, displaying equivalent binding to FN

CC[C@H](C)[C@@H]1NC(=O)[C@H](CCCCN)NC(=O)[C@@H](NC(=O)COCCOCCNC(=O)CCCC[C@@H]2SC[C@@H]3NC(=O)N[C@@H]32)CSSC[C@@H](C(N)=O)NC(=O)[C@@H]2CCCN2C(=O)[C@H](CCSC)NC(=O)[C@H](CO)NC(=O)[C@H](CCCCN)NC(=O)[C@H](CCSC)NC1=O [Peptide P725] ({Biotin-AEEA}-CKIMKSMPC-NH2; disulfide 1-9; C-terminus assumed)
Co-localization with IL-7Rα ([3]; biotinylated P258 (0.04 μM) or P725 (5 μM)): co-localizes with peptides | Decrease of anti-IL-7Rα monoclonal antibody staining intensity ([3]; biotinylated P725 (5 μM), overnight 4 °C): 57% | Inhibition of IL-7-induced STAT5 activation ([4]; P725 1 mM or antibody 10 µg/mL pre-incubated 30 min, then IL-7 6 ng/mL 48 h, ADC-stimulated Jurkat cells): 82% | Prevention of IL-7 binding and STAT-5 activation ([4]; P725 1 mM or antibody 10 µg/mL pre-incubated 30 min, then IL-7 6 ng/mL 48 h, p < 0.01): prevented IL-7 binding and STAT-5 activation | Lysosome content after treatment ([5]; with IL-7, P725 or anti-IL-7Rα antibody, p < 0.05): significantly diminished

C[C@@H]1NC(=O)[C@@H](NC(=O)COCCOCCNC(=O)CCCC[C@@H]2SC[C@@H]3NC(=O)N[C@@H]32)CSSC[C@@H](C(N)=O)NC(=O)[C@H](Cc2c[nH]cn2)NC(=O)[C@@H]2CCCN2C(=O)[C@@H]2CCCN2C(=O)[C@H](CS)NC(=O)[C@H](C)NC(=O)[C@H](CO)NC1=O [Peptide P726] ({Biotin-AEEA}-CASACPPHC-NH2; disulfide 1-9; C-terminus assumed)
Relative affinity for IL-7Rα and FN, peptides [2]: highest specific binding to IL-7Rα

ASACPPH-NH2 [Peptide P258]
Kd [6]: 1800 nM

IL-7 (from UniProt P13232)
Kd [7]: 0.2 nM

IL-7: human recombinant IL-7 (R&D Systems; eBioscience)
Increase in phospho-STAT-5 ([4]; IL-7 6 ng/mL, 48 h, vs. ADC-treated controls): 424% | Increase in lysosome content ([5]; IL-7 vs. ADC-treated controls): 398% | Kd [8]: 0.2 nM | Kd [9]: 10 nM

ASACPPH-NH2 (also: AEEA attached, end not given here, conjugated to PEGylated USPIO) [USPIO-P258]
Kd [10]: 4900 nM | IC50 [11]: 6600 nM

ASACPPH (also: biotin-AEEA attached, end not given here) [P258]
Kd [10]: 600 nM

CKIMKSMPC (disulfide 1-9 (inferred); also: AEEA attached, end not given here)
IC50 [11]: 16400 nM

CKIMKSMPC (disulfide 1-9 (inferred); also: biotin-AEEA attached, end not given here)
Kd [10]: 1100 nM
